Assay results published in the supplement of paper PMC11061612.

Assays:
[1] = test system: 8505C (Thyroid Gland Carcinoma); assay: Bliss excess, mean over the matrix (fraction); higher = more synergy
Summary of the method: (§1)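 Cell lines grown in DMEM/F12 or RPMI with 10% FBS were plated in 1536-well plates and held 24 hours at 37°C, 5% CO2 before 72 hours of exposure to two-drug dose matrices, with DMSO typically at 0.2%. CellTiter-Glo 2.0 luminescence gave viability, which was converted to inhibition. Vehicle wells were set to 0 and blank wells to 1. Combination Emax is the second-highest inhibition in the matrix, and Bliss excess is the observed combination effect minus the expected EA + EB − EA·EB, where EA and EB are the single-agent effects.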

[2] = test system: CHSA8926 (Chondrosarcoma); assay: as above
Summary of the method: as §1

[3] = test system: DAN-G (Pancreatic Carcinoma); assay: as above
Summary of the method: as §1

[4] = test system: ESO51 (Esophageal Adenocarcinoma); assay: as above
Summary of the method: as §1

G-361 (Melanoma) [5] = assay: as above
Summary of the method: as §1

[6] = test system: H9 (T-Cell Non-Hodgkin's Lymphoma); assay: as above
Summary of the method: as §1

[7] = test system: HCC1187 (Breast Carcinoma); assay: as above
Summary of the method: as §1

[8] = test system: IM-95 (Gastric Carcinoma); assay: as above
Summary of the method: as §1

[9] = test system: JHH-4 (Hepatocellular Carcinoma); assay: as above
Summary of the method: as §1

[10] = test system: KMS-12-BM (Plasma Cell Myeloma); assay: as above
Summary of the method: as §1

[11] = test system: KY821 (Acute Myeloid Leukemia); assay: as above
Summary of the method: as §1

[12] = test system: MOLM-13 (Acute Myeloid Leukemia); assay: as above
Summary of the method: as §1

[13] = test system: NCI-H661 (Non-Small Cell Lung Carcinoma); assay: as above
Summary of the method: as §1

[14] = test system: PC-3 (Prostate Carcinoma); assay: as above
Summary of the method: as §1

RD (Rhabdomyosarcoma) [15] = assay: as above
Summary of the method: as §1

[16] = test system: RPMI-8226 (Plasma Cell Myeloma); assay: as above
Summary of the method: as §1

[17] = test system: SK-GT-2 (Gastric Carcinoma); assay: as above
Summary of the method: as §1

[18] = test system: SNU-398 (Hepatocellular Carcinoma); assay: as above
Summary of the method: as §1

[19] = test system: SU-DHL-5 (B-Cell Non-Hodgkin's Lymphoma); assay: as above
Summary of the method: as §1

[20] = test system: SUP-B15 (B-Lymphoblastic Leukemia); assay: as above
Summary of the method: as §1

[21] = test system: 8505C (Thyroid Gland Carcinoma); assay: combination Emax (second highest fraction inhibited in the dose matrix, 72 h); higher = more inhibition; extreme values may be limits of the assay
Summary of the method: as §1

[22] = test system: CHSA8926 (Chondrosarcoma); assay: as above
Summary of the method: as §1

[23] = test system: DAN-G (Pancreatic Carcinoma); assay: as above
Summary of the method: as §1

[24] = test system: ESO51 (Esophageal Adenocarcinoma); assay: as above
Summary of the method: as §1

G-361 (Melanoma) [25] = assay: as above
Summary of the method: as §1

[26] = test system: H9 (T-Cell Non-Hodgkin's Lymphoma); assay: as above
Summary of the method: as §1

[27] = test system: HCC1187 (Breast Carcinoma); assay: as above
Summary of the method: as §1

[28] = test system: IM-95 (Gastric Carcinoma); assay: as above
Summary of the method: as §1

[29] = test system: JHH-4 (Hepatocellular Carcinoma); assay: as above
Summary of the method: as §1

[30] = test system: KMS-12-BM (Plasma Cell Myeloma); assay: as above
Summary of the method: as §1

[31] = test system: KY821 (Acute Myeloid Leukemia); assay: as above
Summary of the method: as §1

[32] = test system: MOLM-13 (Acute Myeloid Leukemia); assay: as above
Summary of the method: as §1

[33] = test system: NCI-H661 (Non-Small Cell Lung Carcinoma); assay: as above
Summary of the method: as §1

[34] = test system: PC-3 (Prostate Carcinoma); assay: as above
Summary of the method: as §1

RD (Rhabdomyosarcoma) [35] = assay: as above
Summary of the method: as §1

[36] = test system: RPMI-8226 (Plasma Cell Myeloma); assay: as above
Summary of the method: as §1

[37] = test system: SK-GT-2 (Gastric Carcinoma); assay: as above
Summary of the method: as §1

[38] = test system: SNU-398 (Hepatocellular Carcinoma); assay: as above
Summary of the method: as §1

[39] = test system: SU-DHL-5 (B-Cell Non-Hodgkin's Lymphoma); assay: as above
Summary of the method: as §1

[40] = test system: SUP-B15 (B-Lymphoblastic Leukemia); assay: as above
Summary of the method: as §1
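For Bliss excess, mean over the matrix in this document: after 72 h of two-drug dosing.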

With CC(=O)c1c(C)c2cnc(Nc3ccc(N4CCNCC4)cn3)nc2n(C2CCCC2)c1=O [Palbociclib] + CN(CC[C@H](CSC1=CC=CC=C1)NC2=C(C=C(C=C2)S(=O)(=O)NC(=O)C3=CC=C(C=C3)N4CCC(CC4)[C@H](C5=CC=CC=C5C6=CC=C(C=C6)Cl)O)S(=O)(=O)C(F)(F)F)CCO [AZD4320] (first compound max 10 µM, 7x7, partner max 1 µM) the Bliss excess [1] was -0.0924, the Bliss excess [2] was -0.0753 and the Bliss excess [3] was -0.0408. It also gave a Bliss excess [4] of -0.0853, a Bliss excess (G-361 (Melanoma) [5]) of -0.0222 and a Bliss excess [6] of -0.0114. For the same compound, the Bliss excess [7] was -0.0429, the Bliss excess [8] was -0.133 and the Bliss excess [9] was -0.0051. For the same compound, the Bliss excess [10] was 0.0159, the Bliss excess [11] was -0.0069 and the Bliss excess [12] was -0.0259. It also gave a Bliss excess [13] of -0.0643, a Bliss excess [14] of -0.0472 and a Bliss excess (RD (Rhabdomyosarcoma) [15]) of 0.0323. For the same compound, the Bliss excess [16] was -0.0531, the Bliss excess [17] was -0.0151 and the Bliss excess [18] was -0.0484. For the same compound, the Bliss excess [19] was -0.0381, the Bliss excess [20] was -0.0515 and the “combination Emax” value [21] was 0.0974. The “combination Emax” value [22] was 0.741, the “combination Emax” value [23] was 0.288 and the “combination Emax” value [24] was 0.15. The “combination Emax” value (G-361 (Melanoma) [25]) was 0.598, the “combination Emax” value [26] was 0.983 and the “combination Emax” value [27] was 0.239. For the same compound, the “combination Emax” value [28] was 0.471, the “combination Emax” value [29] was 0.703 and the “combination Emax” value [30] was 1. The “combination Emax” value [31] was 1, the “combination Emax” value [32] was 1 and the “combination Emax” value [33] was 0.107. The “combination Emax” value [34] was 0.159, the “combination Emax” value (RD (Rhabdomyosarcoma) [35]) was 0.875 and the “combination Emax” value [36] was 0.95. The “combination Emax” value [37] was 0.531, the “combination Emax” value [38] was 0.308 and the “combination Emax” value [39] was 1. For the same compound, the “combination Emax” value [40] was 1.
